The nature of data set [1]: Stability of the compound in PBS buffer at pH 7.2 assessed as half life at 25 degreeC by HPLC analysis. Type of data set: physicochemical.
Data set [2] can be described thus: Stability in human plasma assessed as half life at 37 degreeC by LC-MS/MS analysis. Type of data set: ADME, cell-free.
Data set [3] in a line: Aqueous solubility of compound. The format is physicochemical. The following applies: buffer.
Data set [4] in a line: Stability of the compound in PBS buffer at pH 7.2 assessed as half life in the presence of MeCN by HPLC analysis. Type of data set: physicochemical.
Data set [5] in a line: Cmax in Sprague-Dawley rat at 10 mg/kg,im measured for 0.25 to 10 hrs by LC-MS/MS analysis. The format is ADME, organism-based. Further details: time lower 0.25 hrs, dose 10 mg/kg, time upper 10 hrs, route im. The following applies: in vivo.
Data set [6] in a line: AUC (0-last) in Sprague-Dawley rat at 10 mg/kg, IM measured for 0.25 to 10 hrs by LC-MS/MS analysis. The format is ADME, organism-based. Further details: time upper 10 hrs, dose 10 mg/kg, time lower 0.25 hrs, route im. The following applies: in vivo.
Data set [7] is described as follows: AUC (0-last) in Sprague-Dawley rat assessed as AUC (0-last) of parent compound at 2 mg/kg,iv measured for 0.08 to 10 hrs by LC-MS/MS analysis. Type of data set: ADME, organism-based. Further details: dose 2 mg/kg, time upper 10 hrs, time lower 0.08 hrs, route iv. The following applies: in vivo.
A short description of data set [8]: AUC (0-last) in Sprague-Dawley rat assessed as AUC (0-last) of parent compound at 10 mg/kg,IM measured for 0.25 to 10 hrs by LC-MS/MS analysis. Type of data set: ADME, organism-based. Further details: time 0.25-10 hrs, dose 10 mg/kg, route im. The settings on record: in vivo.
The nature of data set [9]: AUC (0-last) in Sprague-Dawley rat at 2 mg/kg,iv measured for 0.08 to 10 hrs by LC-MS/MS analysis. Type of data set: ADME, organism-based. More on the design: dose 2 mg/kg, time 0.08-10 hrs, route iv. The following applies: in vivo.
Data set [10] in a line: Cmax in Sprague-Dawley rat assessed as cmax of parent compound at 2 mg/kg,iv measured for 0.08 to 10 hrs by LC-MS/MS analysis. The format is ADME, organism-based. More on the design: dose 2 mg/kg, time 0.08-10 hrs, route iv. The settings on record: in vivo.
Data set [11] in a line: Cmax in Sprague-Dawley rat assessed as cmax of parent compound at 10 mg/kg,IM measured for 0.25 to 10 hrs by LC-MS/MS analysis. The format is ADME, organism-based. Further details: time upper 10 hrs, time lower 0.25 hrs, dose 10 mg/kg, route im. The settings on record: in vivo.
Data set [12] is described as follows: Cmax in Sprague-Dawley rat at 2 mg/kg,iv measured for 0.08 to 10 hrs by LC-MS/MS analysis. The settings on record: in vivo. Type of data set: ADME, organism-based. More on the design: dose 2 mg/kg, time 0.08-10 hrs, route iv.
The nature of data set [13]: Stability of the compound in PBS buffer at pH 7.2 assessed as half life at 37 degreeC by LC-MS/MS analysis. Type of data set: physicochemical.
A short description of data set [14]: Solubility of compound in normal saline. Type of data set: physicochemical.
A short description of data set [15]: Stability of the compound in 0.15 M NaCl. The format is physicochemical.
Data set [16] in a line: Stability of the compound in 1 M NaCl. Type of data set: physicochemical.
Data set [17] is described as follows: Stability of the compound in PBS buffer at 4 degreeC. The format is physicochemical.
A short description of data set [18]: Stability of the compound at pH 5. Type of data set: physicochemical. The settings on record: buffer.
Data set [19] is described as follows: Stability of the compound at pH 3. The settings on record: buffer. Type of data set: physicochemical.
Data set [20] in a line: Stability of the compound in 0.1 M HCl. The format is physicochemical.
The next data set relates to Rattus norvegicus. Put plainly: Neuroprotective activity against Sprague-Dawley rat model of traumatic brain injury assessed as reduction in cerebral edema at 10 mg/kg, IM administered for 1 to 6 hrs measured after 24 hrs relative to control. The following applies: time 25-30 hrs. Type of data set: functional. Further details: scale not given: the % may be the effect or the level left.

Data set [21] can be described thus: Stability of the compound in PBS buffer at 37 degreeC. Type of data set: physicochemical.
The nature of data set [22]: Cytotoxicity against human HepG2 cells by Maestro Z Impedance Assay. Type of data set: toxicity, cell-based.
A further data set relates to HepG2. Put plainly: Cytotoxicity against human HepG2 cells assessed as maximum cytolysis at 100 uM by Maestro Z Impedance Assay relative to control. Type of data set: toxicity, cell-based. The settings on record: hepg2, 100 µM.

Some results are limits rather than exact numbers.

For the compound `CNCCN(CCO)C(=O)O/N=C(\C)[C@H]1CC[C@H]2[C@@H]3CCC4=CC(=O)CC[C@]4(C)[C@H]3CC[C@]12C.Cl`, the half-life in data set [1] was 24.8 h; in [2], 1.6 h.

Regarding `C/C(=N\OC(=O)N(C)CCNCCOC(F)(F)F)[C@H]1CC[C@H]2[C@@H]3CCC4=CC(=O)CC[C@]4(C)[C@H]3CC[C@]12C.Cl`, the solubility in [3] is below 1 mg/mL. Also, the half-life in data set [4] is 28.5 h; in data set [2], 1.7 h.

As for `C/C(=N\OC(=O)NC[C@@H]1CCCN1)[C@H]1CC[C@H]2[C@@H]3CCC4=CC(=O)CC[C@]4(C)[C@H]3CC[C@]12C.Cl`, the values for the half-life in [1] and in data set [2] were above 240 h and above 4 h, respectively.

Regarding `C/C(=N\OC(=O)N1CCC[C@H]1CN)[C@H]1CC[C@H]2[C@@H]3CCC4=CC(=O)CC[C@]4(C)[C@H]3CC[C@]12C.Cl`, the half-life in [1] was above 240 h; in [2] it was above 4 h.

Turning to `C/C(=N\OCOP(=O)([O-])[O-])[C@H]1CC[C@H]2[C@@H]3CCC4=CC(=O)CC[C@]4(C)[C@H]3CC[C@]12C.[Na+].[Na+]`, the Cmax in data set [5] was found to be 1360 ng/mL; in data set [10], 219 ng/mL; in data set [11], 425 ng/mL; in data set [12], 182 ng/mL. For the same compound, the AUC(0-t) in data set [6] was 724 ng·h/mL; in data set [9] it was 22 ng·h/mL. In addition, the values for the AUClast in data set [7] and in [8] were 48 ng·h/mL and 753 ng·h/mL, respectively. The compound further registered a solubility in data set [3] above 150 mg/mL.

Take `CC(=O)[C@H]1CC[C@H]2[C@@H]3CCC4=C/C(=N/OC(=O)[C@@H](N)C(C)C)CC[C@]4(C)[C@H]3CC[C@]12C.Cl`: the half-life in data set [1] was 10 h. The amount in solution in data set [3] (solubility) came to 172 µM.

Take `C/C(=N\OC(=O)N(C)CCNCCF)[C@H]1CC[C@H]2[C@@H]3CCC4=CC(=O)CC[C@]4(C)[C@H]3CC[C@]12C.Cl`: the results for the half-life in [1] and in [2] were 36.1 h and 2.2 h, respectively.

As for `CNCCN(C)C(=O)O/N=C(\C)[C@H]1CC[C@H]2[C@@H]3CCC4=CC(=O)CC[C@]4(C)[C@H]3CC[C@]12C.Cl`, the half-life in [1] is 46.9 h; in [2], 2.7 h.

With `C/C(=N\OC(=O)N(C)C[C@@H]1CCCN1)[C@H]1CC[C@H]2[C@@H]3CCC4=CC(=O)CC[C@]4(C)[C@H]3CC[C@]12C.Cl`, the Cmax turned out to be 224 ng/mL in data set [5], 328 ng/mL in data set [10], 954 ng/mL in data set [11] and 122 ng/mL in [12]. The half-life in [13] was 1.9 h; in data set [1] it was 1.9 h; in data set [15], above 240 h; in data set [16], 168 h; in data set [17] it was 74.4 h; in data set [18] it was 175 h. Besides, the half-life in data set [19] is 192 h; in [20], 1.3 h; in data set [21] it was 1 h. Moreover, the values for the AUC(0-t) in data set [6] and in data set [9] were 288 ng·h/mL and 62.9 ng·h/mL, respectively. The AUClast in data set [7] turned out to be 176 ng·h/mL; in data set [8] it was 1304 ng·h/mL. The solubility in data set [14] is above 50 mg/mL. Also, the Activity with Rattus norvegicus is listed as 40%.

Turning to `C/C(=N\OC(=O)NCCN)[C@H]1CC[C@H]2[C@@H]3CCC4=CC(=O)CC[C@]4(C)[C@H]3CC[C@]12C.Cl`, the half-life in [1] is above 240 h; in data set [2] it was above 2 h.

Turning to `CNCCCN(C)C(=O)O/N=C(\C)[C@H]1CC[C@H]2[C@@H]3CCC4=CC(=O)CC[C@]4(C)[C@H]3CC[C@]12C.Cl`, the half-life in [1] is above 240 h; in [2] it was above 4 h.

For the compound `C/C(=N\OC(=O)NCCN(C)C)[C@H]1CC[C@H]2[C@@H]3CCC4=CC(=O)CC[C@]4(C)[C@H]3CC[C@]12C.Cl`, the half-life in data set [1] is above 240 h; in data set [2], above 3.5 h.

In data set [22], `CN1C[C@@H]2CCCN2C1=O` had a CC50 above 100 µM. For the same compound, in the data set with HepG2, the Activity was 30%.

As to `C/C(=N\OC(=O)NC[C@@H]1CCCCN1)[C@H]1CC[C@H]2[C@@H]3CCC4=CC(=O)CC[C@]4(C)[C@H]3CC[C@]12C.Cl`, the half-life in data set [1] is above 240 h.

Take `C/C(=N\OC(=O)OCCN(C)C)[C@H]1CC[C@H]2[C@@H]3CCC4=CC(=O)CC[C@]4(C)[C@H]3CC[C@]12C.Cl`: the values for the half-life in [1] and in data set [2] were 3.5 h and 7.2 h, respectively.

Consider `C/C(=N\OC(=O)N(C)C[C@@H]1CCCCN1)[C@H]1CC[C@H]2[C@@H]3CCC4=CC(=O)CC[C@]4(C)[C@H]3CC[C@]12C.Cl`, for which the half-life in data set [1] was above 240 h.

Take `C/C(=N\OC(=O)OC[C@@H]1CCCN1)[C@H]1CC[C@H]2[C@@H]3CCC4=CC(=O)CC[C@]4(C)[C@H]3CC[C@]12C.Cl`: the half-life in [1] was 0.09 h.

On to `C/C(=N\OC(=O)OCCN)[C@H]1CC[C@H]2[C@@H]3CCC4=CC(=O)CC[C@]4(C)[C@H]3CC[C@]12C.Cl`, for which the half-life in [1] is 0.11 h.

For `C/C(=N\OC(=O)N(C)C[C@@H]1CCCN1C)[C@H]1CC[C@H]2[C@@H]3CCC4=CC(=O)CC[C@]4(C)[C@H]3CC[C@]12C.Cl`, the results for the half-life in [13] and in data set [2] were above 2 h and 0.9 h, respectively.

Consider `CNCC(C)(C)CN(C)C(=O)O/N=C(\C)[C@H]1CC[C@H]2[C@@H]3CCC4=CC(=O)CC[C@]4(C)[C@H]3CC[C@]12C.Cl`, for which the values for the half-life in data set [1] and in data set [2] were above 240 h and above 4 h, respectively.

Regarding `C/C(=N\OC(=O)N(C)CCNCCO)[C@H]1CC[C@H]2[C@@H]3CCC4=CC(=O)CC[C@]4(C)[C@H]3CC[C@]12C.Cl`, the half-life in data set [1] is 30.4 h; in data set [2], 2.8 h.

In the case of `CNC[C@@H]1CCCN1C(=O)O/N=C(\C)[C@H]1CC[C@H]2[C@@H]3CCC4=CC(=O)CC[C@]4(C)[C@H]3CC[C@]12C.Cl`, the half-life in data set [1] was above 240 h; in data set [2] it was above 4 h.

Regarding `C/C(=N\OC(=O)[C@@H](N)C(C)C)[C@H]1CC[C@H]2[C@@H]3CCC4=CC(=O)CC[C@]4(C)[C@H]3CC[C@]12C.Cl`, in data set [1], the half-life was 11 h. The same compound returned a solubility in data set [3] of 146 µM.

The term half-life denotes the time in which the quantity being followed falls by half. The term solubility denotes the concentration that dissolves in the medium under given conditions. As a reminder, the Cmax is the peak of the concentration-time curve. Broadly, the AUC(0-t) is exposure summed from dosing to a finite time, without extrapolation to infinity. For orientation: CC50 means the concentration that lowers cell viability or growth by half.

(Values after ChEMBL document CHEMBL5338742, “Neurotherapeutic Potential of Water-Soluble pH-Responsive Prodrugs of EIDD-036 in Traumatic Brain Injury” (J Med Chem, 2023).)
